Source: US9149038B2, “4-amino-6-(heterocyclic)picolinates and 6-amino-2-(heterocyclic)pyrimidine-4-carboxylates and their use as herbicides” (Dow AgroSciences LLC, priority 2013, dated 2015)
Like-named read-outs stand apart in the source and are kept apart here.

Columns and labels:
[1] = tested on: Key Broadleaf Weed and Crop Species; assay: Post-Emergent Test II: postemergent herbicidal activity, visual rating after 14 d (Table 7); format: in vivo; conditions: post-emergence, 336 h; for pest or weed control at 35 g/ha: 35 g ai/ha; for pest or weed control at 70 g/ha: 70 g ai/ha; for pest or weed control at 140 g/ha: 140 g ai/ha
How it was run: (§1)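 Scoring is visual, 0-100, at 14 d after application, comparing treated with untreated plants. Application: overhead track spray at 187 L/ha onto seedlings at 1-2 true leaves, in surfactant/crop-oil carrier.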

[2] = tested on: Key Grass and Sedge Weeds as well as Grass Crops; assay: Post-Emergent Test II: postemergent herbicidal activity, visual rating after 14 d (Table 8); format: in vivo; conditions: post-emergence, 336 h; for pest or weed control at 35 g/ha: 35 g ai/ha; for pest or weed control at 70 g/ha: 70 g ai/ha; for pest or weed control at 140 g/ha: 140 g ai/ha
How it was run: as §1

[3] = ABUTH: velvetleaf (Abutilon theophrasti), read-out: Visual Growth Reduction (%) 14 Days After Application ABUTH
[4] = AMARE: redroot pigweed (Amaranthus retroflexus), read-out: Visual Growth Reduction (%) 14 Days After Application AMARE
[5] = BRSNN: oilseed rape, canola (Brassica napus), read-out: Visual Growth Reduction (%) 14 Days After Application BRSNN
[6] = CHEAL: lambsquarters (Chenopodium album), read-out: Visual Growth Reduction (%) 14 Days After Application CHEAL
[7] = EPHHL: wild poinsettia (Euphorbia heterophylla), read-out: Visual Growth Reduction (%) 14 Days After Application EPHHL
[8] = HELAN: sunflower (Helianthus annuus), read-out: Visual Growth Reduction (%) 14 Days After Application HELAN
[9] = barnyardgrass (Echinochloa crus-galli), read-out: Visual Growth Reduction (%) 14 Days After Application, ECHCG
[10] = giant foxtail (Setaria faberi), read-out: Visual Growth Reduction (%) 14 Days After Application, SETFA
[11] = maize, corn (Zea mays), read-out: Visual Growth Reduction (%) 14 Days After Application, ZEAMX
[12] = rice (Oryza sativa), read-out: Visual Growth Reduction (%) 14 Days After Application, ORYSA
[13] = wheat, spring (Triticum aestivum), read-out: Visual Growth Reduction (%) 14 Days After Application, TRZAS
[14] = yellow nutsedge (Cyperus esculentus), read-out: Visual Growth Reduction (%) 14 Days After Application, CYPES

## COC(=O)c1nc(-c2ccc(Cl)c3c2OC(F)(F)O3)cc(N)c1Cl [Compound 86]
[1]; [3]
  pest or weed control at 35 g/ha: 75 to 84%
  pest or weed control at 70 g/ha: 85 to 94%
  pest or weed control at 140 g/ha: 85 to 94%
[1]; [4]
  pest or weed control at 35 g/ha: 95 to 100%
  pest or weed control at 70 g/ha: 95 to 100%
  pest or weed control at 140 g/ha: 95 to 100%
[1]; [5]
  pest or weed control at 35 g/ha: 75 to 84%
  pest or weed control at 70 g/ha: 75 to 84%
  pest or weed control at 140 g/ha: 85 to 94%
[1]; [6]
  pest or weed control at 35 g/ha: 95 to 100%
  pest or weed control at 70 g/ha: 95 to 100%
  pest or weed control at 140 g/ha: 95 to 100%
[1]; [7]
  pest or weed control at 35 g/ha: 0 to 29%
  pest or weed control at 70 g/ha: 0 to 29%
  pest or weed control at 140 g/ha: 0 to 29%
[1]; [8]
  pest or weed control at 35 g/ha: 75 to 84%
  pest or weed control at 70 g/ha: 85 to 94%
  pest or weed control at 140 g/ha: 85 to 94%
[2]; [9]
  pest or weed control at 35 g/ha: 0 to 29%
  pest or weed control at 70 g/ha: 0 to 29%
  pest or weed control at 140 g/ha: 0 to 29%
[2]; [10]
  pest or weed control at 35 g/ha: 0 to 29%
  pest or weed control at 70 g/ha: 0 to 29%
  pest or weed control at 140 g/ha: 0 to 29%
[2]; [11]
  pest or weed control at 35 g/ha: 85 to 94%
  pest or weed control at 70 g/ha: 85 to 94%
  pest or weed control at 140 g/ha: 95 to 100%
[2]; [12]
  pest or weed control at 35 g/ha: 0 to 29%
  pest or weed control at 70 g/ha: 0 to 29%
  pest or weed control at 140 g/ha: 0 to 29%
[2]; [13]
  pest or weed control at 35 g/ha: 0 to 29%
  pest or weed control at 70 g/ha: 0 to 29%
  pest or weed control at 140 g/ha: 0 to 29%
[2]; [14]
  pest or weed control at 35 g/ha: 60 to 74%
  pest or weed control at 70 g/ha: 60 to 74%
  pest or weed control at 140 g/ha: 60 to 74%
